Patent publication US11945807B2, “Splicing modulator antibody-drug conjugates and methods of use” (EISAI R&D MANAGEMENT CO., LTD., priority 2018, dated 2024)
Where two headings read alike, the source gives them in different places.

Legend:
[1] = Caco-2 permeability of ADC payload; assay type: in vitro ADME; conditions: human; for Papp B→A at 2 h, 10 NM: basolateral to apical, read-out: Permeability Mean Caco-2 B-A Perm (10e−G cm/s)
Procedure: (§1) Integrity of cell monolayer was confirmed by TEER (transepithelial electrical resistance) and Lucifer yellow. Payloads were spiked in duplicate at 10 NM, separately, on both sides of the cell monolayer. Permeability rates from the apical to basolateral (A-B) direction and the basolateral to apical (B-A) direction were determined by sampling aliquots from both chambers immediately after treatment (t=0) and following incubation for 2 hours. Samples were protein precipitated with organic solvent containing internal standard and analyzed by LC-MS/MS (SCIEX; API 5500). The area ratio responses of payload/internal standard over time in both directions were used to generate permeability (cm/sec) values.

SF3b complex = molecular target: T1, SF3b complex (Homo sapiens, UniProt O75533+Q7RTV0); assay: SF3B1 binding / scintillation proximity assay (SPA)
T1 construct: The beads were suspended and added to the prepared nuclear extracts; endogenous in cells; host or cells: nuclear extracts
Procedure: A scintillation proximity assay was performed to measure the binding affinity of compounds (“payloads”) to the SF3b complex. Batch immobilization of anti-SF3B1 antibody (MBL) to anti-mouse PVT SPA scintillation beads (PerkinElmer) was prepared as follows: for every 2.5 mg of nuclear extracts, 5 μg of anti-SF3B1 antibody and 1.5 mg of beads were mixed in 150 μL PBS. The antibody-bead mixture was incubated for 30 min at RT and centrifuged at 18,000 g for 5 min. 150 μL PBS was used to resuspend every 1.5 mg antibody-bead mixture. The beads were suspended and added to the prepared nuclear extracts. The slurry was incubated for 2 hours at 4° C. with gentle mixing. The beads were then collected by centrifuging at 18,000 g for 5 min, and washed twice with PBS+0.1% Triton X-100. After a final centrifugation step, every 1.5 mg of beads was suspended with 150 μL of PBS. […] The mixture was incubated for 30 min, and luminescence signals were read using a MicroBeta2 Plate Counter (PerkinElmer). Prism 7 (Graphpad) was used for non-linear regression curve fitting of the data.

[2] = Chemical stability of ADC payload, pH 5.5 buffer; assay type: physicochemical; conditions: for half-life at 20 μM: McIlvaine (citrate-phosphate) buffer, unconjugated payload, Citrate-Phosphate buffer pH 5.5, 37° C., read-out: Stability Mean Stability t1/2 pH5.5 (converted); for pH 5.5 Stability (t1/2, 37 C.): pH 5.5, 37 C., corresponding payload
Excerpt: (Eppendorf ThermoMixer). […] Time 0 was set to 100.

THP1.1 = assay: Payload cell potency and lethality CTGlo 72 h, THP1.1; assay type: cell-based; conditions: for CTGlo-AT S Mean Min-Response % 72 h THP1.1: unconjugated payload; for GI50: read-out: CTGlo-ATS GMean GI50 (nM) 72 h THP1.1, cell line #3, 72 h, corresponding free payload
Caco-2 cells = assay: Caco-2 permeability of ADC payload; assay type: in vitro ADME; conditions: corresponding free payload
Procedure: as §1

PC3 cells = assay: Cell viability CellTiter-Glo, PC3 (EPHA2-expressing); assay type: cell-based; conditions: for GI50: Homo sapiens, PC-3, free payload of the ADC; for Payload Rmin (%): free payload of the ADC
Procedure: (§2) HCC1954 (American Type Culture Collection (ATCC)) breast ductal carcinoma cells were plated at 2000 cells/well in flat bottom 96-well tissue culture plates (Corning) in a total volume of 90 μL tissue culture medium supplemented with 10% fetal bovine serum (ThermoFisher Scientific). Cells were treated with a 3-fold serial dilution of compound from 200 nM to 0.03 nM. Each concentration was tested in triplicate. At the time of treatment, a plate of untreated cells was evaluated using CellTiter-Glo®2.0 Luminescent Cell Viability Assay according to the manufacturers recommendations (Promega; #G9241). CellTiter-Glo® 2.0 reagent was added to the medium, incubated, and assayed on an EnVision Multilabel Reader (PerkinElmer). Values represent time zero (T0). […] Percentage growth inhibition was calculated as: [(T144−T0)/(C−T0)]×100 for concentrations for which T144>/=T0 or [(T144−T0)/T0]×100 for concentrations for which T144<T0. The dose response curve plots were generated using Prism 7 (Graphpad) and fit using nonlinear regression analysis and the log(inhibitor) versus response-variable slope (four parameters).
(§3) Anti-CD138 ADCs were tested in the CD138-expressing MOLP8 multiple myeloma cell line. Similarly, anti-EPHA2 ADCs were tested in the EPHA2-expressing PC3 prostate cancer cell line.

HCC1954 cells = assay: Cell viability CellTiter-Glo, HCC1954; conditions: Homo sapiens, HCC1954, read-out: Payload GI50 (nM)
NCIH1650.1 = assay: Payload cellular potency CTGlo-ATS 72 h, NCIH1650.1; assay type: cell-based; conditions: cell line #1, 72 h, corresponding free payload; for GI50: read-out: CTGlo-ATS GMean GI50 (nM) 72 h NCIH1650.1
N87 cells = assay: Cell viability CellTiter-Glo, N87; assay type: cell-based, human; conditions: unconjugated payload of the ADC; for GI50: Homo sapiens
Procedure: as §2
(§4) HCC1954 (ATCC), 2000 cells/well), N87 (ATCC, 4000 cells/well), SKBR3 (ATCC, 3000 cells/well), and MCF7 (ATCC, 1500 cells/well) cell lines were used.

NCIH1568.1 = assay: Payload cellular potency CTGlo-ATS 72 h, NCIH1568.1; assay type: cell-based; conditions: cell line #2, 72 h, corresponding free payload; for GI50: read-out: CTGlo-ATS GMean GI50 (nM) 72 h NCIH1568.1
MCF7 cells = assay: Cell viability CellTiter-Glo, MCF7 (HER2-negative); assay type: cell-based; conditions: Homo sapiens, unconjugated payload of the ADC
Procedure: as §2, §4

MOLP8 cells = assay: Cell viability CellTiter-Glo, MOLP8 (CD138-expressing); assay type: cell-based; conditions: Homo sapiens, MOLP-8, unconjugated payload of the ADC in the row, read-out: Payload GI50
Procedure: as §2, §3

[3] = Caco-2, unconjugated payload, apical to basolateral, 2 hours, read-out: Permeability Mean Caco-2 A-B Perm (10e−6 cm/s)
[4] = Caco-2, unconjugated payload, 2 hours
[5] = Caco-2, A-B, corresponding payload (Table 26), read-out: Permeability Caco-2 A-B (10e−6 cm/s)

SMILES	Papp A→B at 2 h, 10 NM [1, 3] [×10⁻⁶ cm/s]	Papp B→A at 2 h, 10 NM [1, 4] [×10⁻⁶ cm/s]	half-life at 20 μM [2] [h]	CTGlo-AT S Mean Min-Response % 72 h THP1.1 (THP1.1) [%]	Perm. Mean Caco 2 A-B Perm (10e−6 cm/s) (Caco-2 cells)	Perm. Mean Caco 2 B-A Perm (10e−6 cm/s) (Caco-2 cells)	GI50 (PC3 cells) [nM]	Payload Rmin (%) (PC3 cells)	GI50 (THP1.1) [nM]	GI50 (HCC1954 cells) [nM]	CTGlo-ATS GMean LD50 (nM) 72 h NCIH1650.1 (NCIH1650.1) [nM]	GI50 (NCIH1650.1) [nM]	GI50 (N87 cells) [nM]	Payload Rmin (%) (N87 cells)	CTGlo-ATS GMean LD50 (nM) 72 h NCIH1568.1 (NCIH1568.1) [nM]	GI50 (NCIH1568.1) [nM]	GI50 (MCF7 cells) [nM]	Papp A→B at 2 h, 10 NM [1, 5] [×10⁻⁶ cm/s]	pH 5.5 Stability (t1/2, 37 C.) [2]	other results
CC[C@H](O)[C@@H](C)[C@H]1O[C@@H]1C[C@H](C)/C=C/C=C(\C)[C@H]1OC(=O)C[C@H](O)CC[C@@](C)(OC(C)=O)[C@@H](OC(=O)N2CCNCC2)/C=C/[C@@H]1C [D9]	1.15	16.1	< 24	−99.938																IC50 (SF3b complex): 2.18 nM
CC[C@H](O)[C@@H](C)[C@H]1O[C@@H]1C[C@@](C)(O)/C=C/C=C(\C)[C@H]1OC(=O)C[C@H](O)CC[C@@](C)(OC(=O)N2CCNCC2)[C@@H](OC(C)=O)/C=C/[C@@H]1C [D8, (2S,3S,6S,7R,10R,E)-6-acetoxy-10-hydroxy-2-((R,2E,4E)-6-hydroxy-7-((2R,3R)-3-((2R,3S)-3-hydroxypentan-2-yl)oxiran-2-yl)-6-methylhepta-2,4-dien-2-yl)-3,7-dimethyl-12-oxooxacyclododec-4-en-7-yl piperazine-1-carboxylate]	0.128	2.03	84.6	−99.92	0.128 10e−6 cm/s	2.027 10e−6 cm/s	16.6	−68.37	8.74	2.64	>10000.00	19.1	8.84	−34.052	68.125	6.57	29.6			
CC[C@H](O)[C@@H](C)C1OC1C[C@@](C)(O)/C=C/C=C(\C)[C@H]1OC(=O)C[C@H](O)CC[C@@](C)(OC(C)=O)[C@@H](OC(=O)N2CCNCC2)/C=C/[C@@H]1C (stereo in doubt) [D4, (2S,3S,6S,7R,10R,E)-7-acetoxy-10-hydroxy-2-((R,2E,4E)-6-hydroxy-7-((2S,3S)-3-((2R,3S)-3-hydroxypentan-2-yl)oxiran-2-yl)-6-methylhepta-2,4-dien-2-yl)-3,7-dimethyl-12-oxooxacyclododec-4-en-6-yl piperazine-1-carboxylate]	0.1	1.79	106	−99.957	0.1 10e−6 cm/s	1.79 10e−6 cm/s	11.1	−55.97	10.9	1.7	1960.398	11.9	3.24	−81.775	45.485	6.37	11.4	0.1	4.5	GI50 (MOLP8 cells): 1.15 nM
C/C(=C\c1cc(F)cc(N2CCOCC2)c1)[C@H]1OC(=O)C[C@H](O)CC[C@H](C)[C@@H](OC(=O)N2CCN(C)CC2)/C=C/[C@@H]1C [D17]	20.2	18.2		−99.033														20	7	IC50 (SF3b complex; unconjugated payload, [3H]-pladienolide B probe displacement, read-out: SPA-AT S GMean IC50 (nM) SF381 (WT) HELA.2): 1.82 nM
